pIC50: −log10 of the molar value.

This test deals with lactoperoxidase (LPO) (Bos taurus, UniProt P80025). Description: LPO inhibition, peroxidase selectivity profiling. The format is biochemical.
Usually pIC50 stands for the negative decadic logarithm of the IC50, by convention in mol/L. With `Cc1ccc2nc(-c3cccnc3)c(Nc3ccc4c(c3)OCO4)n2c1` [NE-2-6], the negative logarithm of the IC50 (pIC50) was 6.05.

`COc1ccc(-c2nc3cc(C)ccn3c2Nc2ccc3c(c2)OCO3)cc1` [NE-2-7]: the negative-log IC50 (pIC50) was 5.65.

`Cc1ccn2c(Nc3ccc4c(c3)OCO4)c(-c3ccc(O)cc3)nc2c1` [NE-2-8] gave a pIC50 of 5.98.

These data come from publication PMC13509954 (Antioxidants, 2026).
